Data set [1] relates to CD3-/CD16+/CD56+ NK cells. Briefly: Circulating NK cell analysis after 14 days dosing. It is filed as in vivo, rat. How it is done: Blood was collected and stained using BD MultiTest IMK kit (BD Biosciences, San Jose, CA) per manufacturer’s instructions. NK cell numbers were determined by using FlowJo analysis software (FlowJo, LLC, Ashland, OR) and by examining the CD3^−/CD16^+/CD56^+ population. The number of cells/μL was calculated by using the following equation: (# events in cell population/# of events in absolute bead count region) × (# beads per test/test volume), with the value beads per test indicated on the BD Trucount tube label.

The next data set relates to IL-7 driven pSTAT5. Briefly: Clinical ex vivo IL-7 stimulation of whole blood, pSTAT5. It is filed as in vivo. The conditions noted are these: healthy volunteers, 5 mg tofacitinib, 1 h post dose. The method, then:
(§1) Recombinant human IL-6 (400 ng/ml), or IL-7 (400 ng/ml), (R&D Systems, Minneapolis, MN) was added to blood and incubated for 10 min at 37°C. Surface antibodies were added (CD14-APC, CD3-fluorescein isothiocyanate [FITC]; BD Biosciences, San Jose, CA) and incubated on ice for an additional 20 min. Samples were lysed (Lyse/Fix, BD Biosciences, San Jose, CA) and incubated for 10 min at 37°C. Samples were washed and stored at − 70°C. For intracellular staining, samples were thawed, washed, and resuspended in BD Perm buffer III (BD Biosciences, San Jose, CA) on ice for 30 min. Samples were washed and stained with pSTAT5-PE or pSTAT3-PE (BD Biosciences, San Jose, CA) for 60 min at room temperature and then analyzed immediately on a FACSCalibur. Geometric means were determined using FlowJo analysis software.

Data set [2] concerns adjuvant induced arthritis. Briefly: Rat adjuvant-induced arthritis (AIA) model. Format: in vivo.
A further data set has as its system IL-6 induced pSTAT3. Briefly: Clinical ex vivo IL-6 stimulation of whole blood, pSTAT3. Conditions: healthy volunteers, 5 mg of tofacitinib, 1 h post dose. Format: in vivo, healthy volunteers. The method, then: as §1
The subject of the next data set is reticulocyte deployment. In words: Epo induced reticulocyte deployment assay. Format: in vivo. The conditions noted are these: rat, Epo challenge, highest concentration tested. How it is done: Naïve male Lewis rats were injected intravenously with either PBS or 1000 IU of epoetin α (Procrit®, Janssen Products, LP, Horsham, PA) for two consecutive days. Reticulocytes were measured on day 4 by flow cytometry using thiozole orange as a dye as previously described.

Consider `C[C@@H]1CCN(C(=O)CC#N)C[C@@H]1N(C)c1ncnc2[nH]ccc12` [tofacitinib, reference compound], for which the “AUC60 for decrease of circulating NK cell numbers” value in data set [1] (naive rats dosed orally for 14 days) was 1230 ng·h/mL. Also, in data set [1] (rat, at AUC60 of paw swelling), the “Decrease in circulating NK cells at AUC60” value was 70%. For the same molecule, the “Inhibition of IL-7 driven pSTAT5” value with IL-7 driven pSTAT5 is recorded as ~ 70%. Besides, the “Reduction in paw swelling at clinical AUC exposures” value in data set [2] (exposure associated with 10 mg BID of tofacitinib) is ~ 60%. Moreover, in data set [2] (oral BID), the “AUC60, AUC0-12 drug concentration necessary to achieve 60% inhibition of paw swelling” value came to 1205 ng·h/mL. In addition, the “Effect on paw swelling” value in data set [2] (oral, dosed from day 7) was “dose-responsive efficacy”. For the same molecule, in the data set on IL-6 induced pSTAT3, the “Inhibition of IL-6 induced pSTAT3” value was ~ 50%. Further, in the data set on reticulocyte deployment, the “Maximal inhibition of reticulocyte deployment” value is reported as over 40%.

(Values after publication PMC6390583 (BMC rheumatology, 2018).)
